In assay [1] the test system is LTB4 induced degranulation of human neutrophils. The experiment in a line: Human Neutrophil Degranulation Assay (LTB4 induced myeloperoxidase release). Type of assay: cell-based. The note with it: cytochalasin B, LTB4 5×10^-8 M, read-out: Inhibition of LTB4 Induced Neutrophil Degranulation IC50. An excerpt: (§1) For use in both the "LTB4 receptor Binding Assay" and the "human Neutrophil Degranulation Assay", neutrophils were purified from venous blood of normal human donors using standard techniques of dextran sedimentation, centrifugation on Histopaque® (density solution) and hypotonic lysis of erythrocytes (Boyum, A., Isolation of Leukocytes From Human Blood: Further Observations. Scand. J. Lab. Clin. Inves. 21 (Suppl. 97): 31, 1968). The purity of isolated neutrophils was ≥95%.
LTB4 induced neutrophil degranulation was determined by measuring the release of myeloperoxidase activity into the incubation medium. Neutrophils (3×10^6) in 1 ml HBSS solution were preincubated with cytochalasin B(5 μg) at 37° C. for 5 minutes, followed by preincubation with test compounds for 7 minutes. Neutrophilsere then incubated for 2 to 20 minutes with either LTB4 (5 ×10^-8 M) or the chemotactic peptide f-met-leu-phe (5×10^-6 M) to induce degranulation. Following incubation, samples were centrifuged and myleoperoxidase was extracted from the cell pellets by sonication in phosphate buffer containing 0.4% Triton X-100. Triton X-100 was also added to the supernatents to a concentration of 0.4%. The supernatants and the pellet extracts were then assayed spectrophotometrically for myeloperoxide activity by determining the rate of decomposition of H2 O2 with o-dianisidine as hydrogen donor as described by Renlund D. G., MacFarlane J. L., Christensen, R. D., Lynch R. E., and Rothstein, G., A Quantitative And Sensitive Method For Measurement Of Mveloperoxidase, Clinical Research 28:75A, 1980). Myeloperoxidase activity released into the supernatant was expressed as the percent of the average total activity (pellet plus supernatant).
The inhibition of LTB4 induced neutrophil degranulation was determined for representative compounds of this invention and their corresponding IC50 values were calculated (Table 1). The concentration of a compound which inhibited LTB4 induced neutrophil degranulation by 50% was determined to be its IC50 value.

The target of a further assay is T1, LTB4 receptor (Homo sapiens, UniProt Q15722).
T1 construct: neutrophils were purified from venous blood of normal human donors; endogenous in cells; host or cells: neutrophils purified from venous blood of normal human donors (purity at least 95%)
T1 sequence (Q15722 whole entry): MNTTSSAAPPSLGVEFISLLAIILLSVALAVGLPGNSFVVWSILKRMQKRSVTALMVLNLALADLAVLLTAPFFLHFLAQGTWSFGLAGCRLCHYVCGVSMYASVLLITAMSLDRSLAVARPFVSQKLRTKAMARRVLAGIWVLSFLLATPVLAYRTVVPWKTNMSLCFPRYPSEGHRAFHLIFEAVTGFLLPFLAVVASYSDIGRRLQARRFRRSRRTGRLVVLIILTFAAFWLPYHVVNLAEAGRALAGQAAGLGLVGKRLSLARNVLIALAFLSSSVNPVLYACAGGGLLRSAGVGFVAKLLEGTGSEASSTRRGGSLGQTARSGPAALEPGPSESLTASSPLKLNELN
The experiment in a line: LTB4 Receptor Binding Assay (inhibition of specific binding of (3H) LTB4 to human neutrophils). The note with it: 0.6 nM (3H) LTB4, 0° C., 45 minutes; for IC50: pH 7.4.
Source text: as §1
Neutrophils (4-6×10^6) in 1 ml of Hanks balanced salt solution containing 10 mM Hepes Buffer (HBSS), pH 7.4 and 30 μM nordihydroguaiaretic acid were incubated with 0.6 nM (^3 H) LTB4 in the presence or absence of test compounds. The incubation was carried out at 0° C. for 45 minutes and terminated by adding 5 ml of ice cold HBSS followed by rapid filtration of incubation mixture under vacuum through GF/C glass fiber filters. The filters were further washed with 10 ml HBSS and their radioactivity was determined. Specific binding was defined as the difference between total binding and nonspecific binding which was not displaced by 10-^7 M unlabeled LTB4.
The inhibition of specific binding was determined for representatives compounds of this invention, and the corresponding IC50 values calculated (Table 1). An IC50 is the concentration of the compound of interest which will inhibit the binding of LTB4 by 50% of the LTB4 receptors. For example, for the compound of Example 7, the IC50 was determined to be approximately

In the case of “Methyl 7-[4-(hydroxynonyl)phenyl]-5-hydroxy-6heptynoate [Example 11]”, the half-inhibitory concentration (IC50) in assay [1] was 0.65 µM; at LTB4 receptor it was 1 µM.

For the substance “7-[2-[5-(1-hydroxynonyl)thienyl]-5-hydroxy-6Z-heptenoic acid, lithium salt [Example 23]”, the IC50 in assay [1] turned out to be 8.7 µM. Also, the “Inhibition of Receptor Binding of LTB4, % inhibition” value on LTB4 receptor (at 10 μM) amounted to 20%.

For the substance “7-[2-[5-(1-hydroxynonyl)thienyl]-5-hydroxy-6Z-heptynoic acid, lithium salt [Example 22]”, the IC50 in assay [1] stood at 1.8 µM; on LTB4 receptor, 5 µM.

For the origin of these results see US4895869A, “Phenylene, furyl, and thienyl leukotriene B4 analogues” (C. D. Searle & Co., priority 1988, dated 1990).
